Results from patent publication EP0428486B1, “Polymyxin conjugates” (SANDOZ LTD., priority 1989, dated 1991).

Tests used:
non-sensitized mice = assay: PMB (native and conjugated forms) induced lethality, i.p.; format: in vivo, Male CB57BL/c mice; conditions: intraperitoneal injection, lethality monitored for 7 days
Method: (§1) As used herein the following definitions apply: • LD₀ is the highest non-toxic dose of PMB or its conjugate; • LD₁₀₀ is the dose of PMB or its conjugated form which results in 90-100% lethality when injected into a normal test animal; • PD₁₀₀ is the dose of polymyxin B or its conjugated form which, when injected into a hypersensitized test animal, results in at least 95 % survival; • Therapeutic Index (TI) is calculated by dividing LD₁₀₀ by PD₁₀₀.
PMB (native and conjugated forms) are evaluated for their inherent toxicity in non-sensitized mice. Male CB57BL/c mice (18-22 g, Jackson Labs) are used throughout this study. Animals are given either native PMB or conjugated PMB by intraperitoneal injection (0.5 ml/animal) and lethality is monitored for 7 days. The LD₁₀₀ is determined by varying the dose of PMB (native and conjugated forms) that result in 100 % lethality. From 10 to 20 animals are used for each dose.

[1] = Toxicity (lethality) after i.v. injection, Example 4; format: in vivo
Method: The ultra-pure PMB-conjugate has an LD₀ of > 100 mg/kg and it has not been possible to establish an LD₁₀₀ due to its inherent non-toxicity. Comparisons in the table below are made between the highest non-toxic dose of PMB (native or conjugated): […]

endotoxin (0111B₄) = assay: PMB anti-endotoxin evaluation (endotoxin-induced lethality in galactosamine-hypersensitized mice), i.p.; format: in vivo, Male CB57BL/c mice
Method: as §1
Male CB57BL/c mice (18-22 g, Jackson Labs) are used throughout this study. Animals are given endotoxin (0111B₄ from List Biologicals, Palo Alto, CA, USA) and galactosamine to hypersensitize, as described in Galanos et al., Proc. Natl. Acad. Sci. USA 76 (1979) 5939. The endotoxin and galactosamine (320 mg/kg) are injected intraperitoneally in 0.5 ml pyrogen-free isotonic saline per animal between 13:00 and 15:00 to avoid diurnal variation. From a dose-response study, it is determined that 0.01 mg/kg endotoxin produces 85-95 % lethality. Animals are observed each day for 6 days after injection.
PMB (native and conjugated forms) are evaluated for their ability to neutralize endotoxin by either pre-mixing with endotoxin for 60 minutes before i.p. injection or by coadministration of the substances as a single i.p. injection. […]

E.coli 0111B4 endotoxin = assay: Endotoxin-induced lethality test, i.v. treatment, Example 4; format: in vivo; conditions: i.v. injection 1-3 minutes before an LD90 i.p. injection of E.coli 0111B4 endotoxin (0.5 µg/kg)

**Q.** With polymyxin B [Native PMB] as the substance, how does the LD₁₀₀ (non-sensitized mice) read?
**A.** 25 mg/kg

**Q.** And the LD₁₀₀ i.v. ([1]; i.v.)?
**A.** 9.5 mg/kg

**Q.** And the LD₀ ([1]; i.v. injection, lethality monitored over 7 days, highest non-toxic dose)?
**A.** 5 mg/kg

**Q.** And the PD₁₀₀ (endotoxin (0111B₄); PMB or conjugate allowed to react with the endotoxin for 60 min before i.p. injection)?
**A.** 2 mg/kg

**Q.** What about the PD₁₀₀ (endotoxin (0111B₄); i.p., hypersensitized mice (galactosamine 320 mg/kg, endotoxin 0.01 mg/kg), pre-mixing or coadministration not stated for these rows) of the same substance?
**A.** 2 mg/kg

**Q.** And the PD₁₀₀ (E.coli 0111B4 endotoxin)?
**A.** 0.1 mg/kg
